A short description of the series: Differential scanning calorimetry (VP-DSC) of DSPC liposomes (MLVs) with drugs. Also noted: ΔHcal / ΔHvH / ΔHv: unit not given here. The format is physicochemical. The settings on record: for Interaction of the drug with the lipid bilayer (thermogram deviation from DSPC control): FIGS. 1A-1D, pH 3.6, DSPC/drug mixture vs DSPC control; for ΔHcal: calorimetric phase transition enthalpy; for ΔHcal / Cpmax / ΔTm½ / ΔT½: drug-to-lipid 1:5; for CU: cooperativity unit = ΔHvH/ΔHcal; for Tm: drug-to-lipid mole ratio 1:5; for Cpmax: heat capacity at phase transition peak; for ΔTm½ / ΔT½: transition peak width at half-height; for ΔHvH / ΔHv: van't Hoff's enthalpy calculated from DSC measurements; for Coop: cooperativity calculated from DSC measurements. The source says: Differential scanning calorimetry (DSC) is a method known in the art used to measure the amount of energy (as heat) absorbed or released by a sample as it is heated, cooled, or held at a constant temperature. As used herein, the term “DSC measurements” further includes calculations using a measured feature of the sample. An exemplary method of measuring DSC utilizes a differential scanning calorimeter. Any calorimeter is suitable as long as the temperature range of the calorimeter is appropriate for the sample measurements. An exemplary calorimeter is the VP-DSC differential scanning calorimeter available from MicroCal (Northampton, Mass., USA). Typical applications using the differential scanning calorimeter include determination of melting point temperature and/or the heat of melting, measurement of the glass transition temperature, curing and crystallization studies, and identification of phase transformations.
In the embodiment using a differential scanning calorimeter for measuring the thermodynamic properties of a lipid suspension, the heat flow into a sample is usually contained in a sample cell and measured differentially, i.e. by comparing the heat flow of the sample to the heat flow into an reference cell containing an equal volume of water or the aqueous component of the sample. The heat flow may be considered as the amount of heat (q) supplied per unit of time (t), or q/t. Typically, both cells sit inside a metal jacket with a known (calibrated) heat resistance (K). The temperature of the calorimeter is raised linearly with time (scanned), where the heating rate (β=dT/dt) of the cells are kept constant and consistent with each other. […] The temperature may be controlled manually or automatically. […] Heat flows into the two cells by conduction from a heat source such as a radiator. The heat flow into the sample cell is larger due to the additional heat capacity (Cp) of the sample during the course of the phase transition. Heat capacity refers to the heat flow divided by the heating rate or Cp=q/ΔT, where q is heat, and ΔT is temperature increase. The difference in heat flow (dq/dt) induces a temperature difference (dT) between the sample and the reference cells. This temperature difference is measured using any appropriate sensor, such as a thermocouple, and a signal is generated representative of the difference.
In this figure, in a heating scan, an endothermic event results in a positive (upward) deviation from the baseline. […] The melting temperature is seen on the heat flow plot as a peak as heat is absorbed by the sample until the phase transition is completed. As will be appreciated by those of skill in the art, the main phase transition extends over a temperature range, although this peak is typically very sharp for most vesicle-forming lipids, such as DSPC, the Tm can be reported as the onset of the transition, as the midpoint of the transition, the peak temperature, or any suitable point as long as the parameters are defined. […] It will be appreciated that the exact percent of phase transition is not important as long as it is defined. Where a ratio is used, it is desirable to use the same ratio for each sample to aid in comparison between the samples. In the studies reported herein, the Tm is reported as the maximum peak of the transition range.
The latent heat of melting, or the calorimetric phase transition enthalpy, (ΔHcal) can be determined by first determining the area (A) under the peak according to the following formula: A=(heat in calories)(temperature in Kelvin)/(time in seconds)(mass in moles).

[1] abbreviates: pH 3.6, scan 20° C./hour, maximum peak of main phase transition.

As for `CC(=O)O[C@H]1C(=O)[C@@]2(C)[C@H]([C@H](OC(=O)c3ccccc3)[C@]3(O)C[C@H](OC(=O)[C@H](O)[C@@H](NC(=O)c4ccccc4)c4ccccc4)C(C)=C1C3(C)C)[C@]1(OC(C)=O)CO[C@@H]1C[C@@H]2O` [paclitaxel], the “Interaction of the drug with the lipid bilayer (thermogram deviation from DSPC control)” value is on record as “significant interaction”. For the setting “pH 3.6”, the ΔHcal came to 10.6, the CU is reported as 26.6, the Tm is 54.5 °C and the Cpmax stood at 3.5. In addition, for the setting “pH 3.6”, the ΔTm½ was determined as 2.27 °C and the ΔHvH was 281.7. For the same compound, the Tm under setting [1] is 54.5 °C. Moreover, for the setting “pH 7.0”, the ΔHcal came to 9.94, the Coop is 75, the Tm stood at 54.07 °C and the Cpmax was determined as 8.67. Further, for the setting “pH 7.0”, the ΔT½ stood at 0.77 °C and the ΔHv was 741. Further, for the setting “pH 7.0, scan 20° C./hour”, the Tm is given as 54.07 C.
Turning to `CC[C@@]1(O)C(=O)OCc2c1cc1n(c2=O)Cc2c-1nc1ccccc1c2CCNC(C)C` [CKD602], the “Interaction of the drug with the lipid bilayer (thermogram deviation from DSPC control)” value is listed as “some interaction”. Moreover, for the setting “pH 3.6”, the ΔHcal came out at 11.81, the CU was 45.9, the Tm was 54.7 °C and the Cpmax is 7.5. For the setting “pH 3.6”, the ΔTm½ was determined as 1.27 °C and the ΔHvH was 542.3. Moreover, the Tm under setting [1] came to 54.6 °C. In addition, for the setting “pH 7.0”, the ΔHcal worked out at 11.2, the Coop is reported as 117, the Tm was 54.43 °C and the Cpmax is given as 17.2. Also, where the note is “pH 7.0”, the ΔT½ came out at 0.42 °C and the ΔHv was 1308. Besides, the Tm (pH 7.0, scan 20° C./hour) was 54.43 C.
With `COc1cccc2c1C(=O)c1c(O)c3c(c(O)c1C2=O)C[C@@](O)(C(=O)CO)C[C@@H]3O[C@H]1C[C@H](N)[C@H](O)[C@H](C)O1` [doxorubicin], the “Interaction of the drug with the lipid bilayer (thermogram deviation from DSPC control)” value is listed as “weak interaction”. For the same compound, for the setting “pH 3.6”, the ΔHcal was 9.28, the CU turned out to be 73.3, the Tm amounted to 54.6 °C and the Cpmax is on record as 7.4. Also, where the note is “pH 3.6”, the ΔTm½ came out at 0.94 °C and the ΔHvH was 680.5. Besides, the Tm under setting [1] amounted to 54.5 °C. Also, for the setting “pH 7.0”, the ΔHcal is recorded as 9.66, the Coop is recorded as 149, the Tm worked out at 54.5 °C and the Cpmax is 16.3. For the setting “pH 7.0”, the ΔT½ came to 0.4 °C and the ΔHv is recorded as 1437. Also, the Tm (pH 7.0, scan 20° C./hour) was found to be 54.45 C.
As for `O=C(O)c1cn(C2CC2)c2cc(N3CCNCC3)c(F)cc2c1=O` [ciprofloxacin], for the setting “pH 3.6”, the ΔHcal is given as 9.98, the CU is 38.6, the Tm is 55 °C and the Cpmax turned out to be 4.5. Further, for the setting “pH 3.6”, the ΔHvH is reported as 385.6. Further, under setting [1], the Tm came out at 54.9 °C.
`CC[C@]1(O)C[C@H]2CN(CCc3c([nH]c4ccccc34)[C@@](C(=O)OC)(c3cc4c(cc3OC)N(C=O)[C@H]3[C@@](O)(C(=O)OC)[C@H](OC(C)=O)[C@]5(CC)C=CCN6CC[C@]43[C@@H]65)C2)C1` [vincristine]: the “Interaction of the drug with the lipid bilayer (thermogram deviation from DSPC control)” value is listed as “some interaction”. Further, where the note is “pH 3.6”, the ΔHcal stood at 12.77, the CU came to 37.2, the Tm came out at 54.7 °C and the Cpmax turned out to be 7.1. Under “pH 3.6”, the ΔTm½ was determined as 1.42 °C and the ΔHvH is on record as 474.9. Moreover, the Tm under setting [1] came out at 54.6 °C. In addition, under “pH 7.0”, the ΔHcal is listed as 11.65, the Coop is 43, the Tm was 53.93 °C and the Cpmax is 6.81. For the same compound, under “pH 7.0”, the ΔT½ turned out to be 1.38 °C and the ΔHv is recorded as 496. Moreover, the Tm (pH 7.0, scan 20° C./hour) is on record as 53.93 C.

Values taken from patent US20050107959A1, “Screening method for evaluation of bilayer-drug interaction in liposomal compositions” (priority 2003, published 2005).
